This passage reports MIC results from patent US20120114797A1, “TALAROMYCES STRAINS AND ENZYME COMPOSITIONS” (DSM IP ASSETS B.V., priority 2009, published 2012).

In general, MIC refers to the smallest concentration in the dilution series that meets the test's criterion for growth inhibition.

One test relates to TEC-142. Description: MIC of glucose analogs on YNB+agar plates, TEC-142. It is filed as cell-based, Talaromyces emersonii. As to conditions: 10^7/ml spore suspensions of TEC-142 on YNB+agar plates.
The next test deals with TEC-180. The experiment in a line: MIC of 2-deoxyglucose on YNB+agar plates, TEC-180. As to conditions: 10^7/ml spore suspensions of TEC-180 on YNB+agar plates. The class given is cell-based, Talaromyces emersonii.

Method for TEC-142: MIC values of various glucose analogs (2-deoxyglucose, 1-thioglucose, 5-thioglucose) are determined by examining growth after inoculation of 0.1 ml dilutions of 10^7/ml spore suspensions of TEC-142 on YNB+agar plates with increasing concentrations of analogs.
The MIC value of 2-deoxyglucose (DOG) was determined by examining growth after inoculation of 0.1 ml dilutions of 10^7/ml spore suspensions of TEC-142 on YNB+agar plates with increasing concentrations of analog.

Consider `OC[C@@H](O)[C@@H](O)[C@H](O)[C@@H](O)C=S` [1-thioglucose], for which the MIC with TEC-142 turned out to be 4000 µg/mL. Turning to `O=CC[C@@H](O)[C@H](O)[C@H](O)CO` [2-deoxyglucose, 2-deoxy-D-glucose], the MIC in the test on TEC-142 and in the test with TEC-180 was 500 µg/mL in each case.
